≈ marks a conversion by molar mass, not a printed value.
Key:
Brain = assay: Drug uptake in C57BL/6 mouse brain at 30 mg/kg, po; format: ADME, organism-based; conditions: in vivo
[1] = Drug uptake in CSF of C57BL/6 mouse at 30 mg/kg, po; format: ADME, organism-based, Cerebrospinal fluid; conditions: in vivo
[2] = Kinetic solubility of the compound at pH 7 by HPLC analysis; format: physicochemical; conditions: buffer, read-out: Kinetic_solubility
[3] = Tmax in po dosed C57BL/6 mouse; format: ADME, organism-based; conditions: in vivo
[4] = Oral bioavailability in rat at 10 mg/kg; format: ADME, organism-based; conditions: in vivo
Plasma [5] = assay: Plasma concentration in C57BL/6 mouse at 3 to 30 mg/kg, po; format: ADME, organism-based; conditions: in vivo
[6] = Lipophilicity, log D of compound by HPLC analysis; format: physicochemical
[7] = Kinetic solubility of the compound at pH 2 by HPLC analysis; format: physicochemical; conditions: buffer, read-out: Kinetic_solubility
Plasma [8] = assay: Plasma concentration in C57BL/6 mouse at 1 to 10 mg/kg, po; format: ADME, organism-based; conditions: in vivo
Rattus norvegicus = assay: Intrinsic clearance in rat at 0.05 mg/kg, iv administered in cassette format or 2 mg/kg, iv administered as single dose or 10 mg/kg, po; format: ADME, organism-based; conditions: in vivo

Row | SMILES | bioavailability [4] | logD [6] | CL (Rattus norvegicus) | further results
1 | O=S(=O)(Nc1nccs1)c1cc(Cl)c(NCC23CCCN2CCC3)cc1F | 40% | 0.7 |  | Drug uptake (Brain): 6%; Drug uptake [1]: 1%; solubility kinetic [2]: 43 µM (≈ 18.5 µg/mL); Tmax [3]: 3 h; concentration (Plasma [5]): 420 nM; solubility kinetic [7]: 159 µM (≈ 68.5 µg/mL)
2 | CC1(C)CN2CCC[C@]2(CNc2cc(F)c(S(=O)(=O)Nc3nccs3)cc2Cl)C1 | 61% | 1.7 | 460 mL/min/kg | solubility kinetic [2]: 28 µM (≈ 12.9 µg/mL); Tmax [3]: 3 h; concentration (Plasma [8]): 250 nM; solubility kinetic [7]: 143 µM (≈ 65.6 µg/mL)
3 | Cc1nc(NS(=O)(=O)c2cc(Cl)c(NCC34CCCN3CCC4)cc2F)sc1F |  | 1.3 | 630 mL/min/kg | 
4 | O=S(=O)(Nc1ncns1)c1cc(Cl)c(NCC23CCCN2CCC3)cc1F |  | 0.4 | 660 mL/min/kg | 
5 | O=S(=O)(Nc1nccs1)c1cc(Cl)c(NCC23CCCCN2CCCC3)cc1F |  | 2.2 | 3000 mL/min/kg | 
6 | Cc1cnc(NS(=O)(=O)c2cc(Cl)c(NCC34CCCN3CCC4)cc2F)s1 |  | 1.1 | 560 mL/min/kg | 
7 | O=S(=O)(Nc1ccncn1)c1cc(Cl)c(NCC23CCCN2CCC3)cc1F |  | -0.2 | 61 mL/min/kg | 
8 | O=S(=O)(Nc1ncc(F)s1)c1cc(Cl)c(NCC23CCCN2CCC3)cc1F | 55% | 1 | 230 mL/min/kg | 
9 | O=S(=O)(Nc1nccs1)c1cc(Cl)c(NC[C@]23CCCN2C[C@@H](F)C3)cc1F | 57% | 1.5 | 810 mL/min/kg | 
10 | O=S(=O)(Nc1cscn1)c1cc(Cl)c(NCC23CCCN2CCC3)cc1F |  | 0.7 |  | 
11 | O=S(=O)(Nc1ncns1)c1cc(F)c(NCC23CCCN2CCC3)cc1F | 4% | 0 | 62 mL/min/kg | 
12 | O=S(=O)(Nc1nccs1)c1cc(Cl)c(NCC23CCCN2CC(F)(F)C3)cc1F (configuration not stated) |  | 1.7 |  | 
13 | CC1(C)CN2CCC[C@@]2(CNc2cc(F)c(S(=O)(=O)Nc3nccs3)cc2Cl)C1 | 45% | 1.7 | 850 mL/min/kg | 
14 | Cc1csc(NS(=O)(=O)c2cc(Cl)c(NCC34CCCN3CCC4)cc2F)n1 | 36% | 1.1 | 71 mL/min/kg | 
15 | O=S(=O)(Nc1nccs1)c1cc(Cl)c(NCCC23CCCN2CCC3)cc1F | 30% | 0.6 | 1600 mL/min/kg | 
16 | O=S(=O)(Nc1ncc(Cl)s1)c1cc(Cl)c(NCC23CCCN2CCC3)cc1F | 45% | 1.3 | 780 mL/min/kg | 
17 | O=S(=O)(Nc1nccs1)c1cc(Cl)c(NC[C@@]23CCCN2C[C@H](F)C3)cc1F |  | 1.5 |  | 
18 | O=S(=O)(Nc1cccc(F)n1)c1cc(Cl)c(NCC23CCCN2CCC3)cc1F | 26% | 1 | 610 mL/min/kg | 

From ChEMBL document CHEMBL4017458, “Discovery of selective, orally bioavailable, N-linked arylsulfonamide Nav1.7 inhibitors with pain efficacy in mice” (Bioorg Med Chem Lett, 2017)
